Test results from ChEMBL document CHEMBL3769352, “Design, synthesis, and testing of an isoquinoline-3-carboxylic-based novel anti-tumor lead” (Bioorg Med Chem Lett, 2015).

Experiments:
[1] = system: Mus musculus; test: Toxicity in Swiss mouse allografted with mouse S180 cells assessed as effect on liver to body weight ratio at 2 umol/kg, sc administered every day for 12 days measured on fourteenth day; assay type: organism-based, CCRF S-180; conditions: in vivo, 288 h
[2] = system: A2780; test: Cytotoxicity against human A2780 cells after 48 hrs by MTT assay; assay type: functional, cell-based; conditions: A2780, 48 h
[3] = system: Mus musculus; test: Toxicity in Swiss mouse allografted with mouse S180 cells assessed as body weight at 2 umol/kg, sc administered every day for 12 days measured every day during compound administration; assay type: organism-based, CCRF S-180; conditions: in vivo, 288 h
[4] = system: MCF7; test: Cytotoxicity against human MCF7 cells after 48 hrs by MTT assay; assay type: functional, cell-based; conditions: MCF7, 48 h
[5] = system: Mus musculus; test: Toxicity in Swiss mouse allografted with mouse S180 cells assessed as effect on kidney to body weight ratio at 2 umol/kg, sc administered every day for 12 days measured on fourteenth day; assay type: organism-based, CCRF S-180; conditions: in vivo, 288 h
[6] = system: Mus musculus; test: Toxicity in Swiss mouse allografted with mouse S180 cells assessed as effect on spleen to body weight ratio at 2 umol/kg, sc administered every day for 12 days measured on fourteenth day; assay type: organism-based, CCRF S-180; conditions: in vivo, 288 h
[7] = system: HepG2; test: Cytotoxicity against human HepG2 cells after 48 hrs by MTT assay; assay type: functional, cell-based; conditions: HepG2, 48 h
[8] = system: HeLa; test: Cytotoxicity against human HeLa cells after 48 hrs by MTT assay; assay type: functional, cell-based
[9] = Cytotoxicity against human Bel7402 cells after 48 hrs by MTT assay; assay type: functional, cell-based; conditions: Bel-7402, 48 h
[10] = system: CCRF S-180; test: Antitumor activity against mouse S180 cells allografted in Swiss mouse assessed as tumour weight at 8 umol/kg, sc administered every day for 12 days measured on fourteenth day (reference value: 1.662 +/- 0.355 g); assay type: functional
[11] = system: Mus musculus; test: Toxicity in Swiss mouse allografted with mouse S180 cells assessed as effect on brain to body weight ratio at 2 umol/kg, sc administered every day for 12 days measured on fourteenth day; assay type: organism-based, CCRF S-180; conditions: in vivo, 288 h
[12] = system: Mus musculus; test: Toxicity in Swiss mouse allografted with mouse S180 cells assessed as effect on heart to body weight ratio at 2 umol/kg, sc administered every day for 12 days measured on fourteenth day; assay type: organism-based, CCRF S-180; conditions: in vivo, 288 h
[13] = system: KB; test: Cytotoxicity against human KB cells after 48 hrs by MTT assay; assay type: functional, cell-based
[14] = system: Mus musculus; test: Toxicity in Swiss mouse allografted with mouse S180 cells assessed as spleen weight index at 2 umol/kg, sc administered every day for 12 days measured on fourteenth day; assay type: organism-based, CCRF S-180; conditions: in vivo, 288 h
[15] = system: CCRF S-180; test: Antitumor activity against mouse S180 cells allografted in Swiss mouse assessed as tumour weight at 2 umol/kg, sc administered every day for 12 days measured on fourteenth day (reference value: 1.662 +/- 0.355 g); assay type: functional
[16] = system: Mus musculus; test: Toxicity in Swiss mouse allografted with mouse S180 cells assessed as effect on liver to body weight ratio at 8 umol/kg, sc administered every day for 12 days measured on fourteenth day; assay type: organism-based, CCRF S-180; conditions: in vivo, 288 h
[17] = system: Mus musculus; test: Toxicity in Swiss mouse allografted with mouse S180 cells assessed as effect on heart to body weight ratio at 8 umol/kg, sc administered every day for 12 days measured on fourteenth day; assay type: organism-based, CCRF S-180; conditions: in vivo, 288 h
[18] = system: Mus musculus; test: Toxicity in Swiss mouse allografted with mouse S180 cells assessed as effect on brain to body weight ratio at 8 umol/kg, sc administered every day for 12 days measured on fourteenth day; assay type: organism-based, CCRF S-180; conditions: in vivo, 288 h
[19] = system: Mus musculus; test: Toxicity in Swiss mouse allografted with mouse S180 cells assessed as spleen weight index at 8 umol/kg, sc administered every day for 12 days measured on fourteenth day; assay type: organism-based, CCRF S-180; conditions: in vivo, 288 h
[20] = system: Mus musculus; test: Toxicity in Swiss mouse allografted with mouse S180 cells assessed as effect on spleen to body weight ratio at 8 umol/kg, sc administered every day for 12 days measured on fourteenth day; assay type: organism-based, CCRF S-180; conditions: in vivo, 288 h
[21] = system: Mus musculus; test: Toxicity in Swiss mouse allografted with mouse S180 cells assessed as effect on body weight at 8 umol/kg, sc administered every day for 12 days measured every day during compound administration; assay type: organism-based, CCRF S-180; conditions: in vivo, 288 h
[22] = system: Mus musculus; test: Toxicity in Swiss mouse allografted with mouse S180 cells assessed as effect on kidney to body weight ratio at 8 umol/kg, sc administered every day for 12 days measured on fourteenth day; assay type: organism-based, CCRF S-180; conditions: in vivo, 288 h
[23] = system: Mus musculus; test: Toxicity in Swiss mouse allografted with mouse S180 cells assessed as reduction in spleen weight index at 2 umol/kg, sc administered every day for 12 days measured on fourteenth day; assay type: organism-based, CCRF S-180; conditions: in vivo, 288 h
[24] = system: Mus musculus; test: Toxicity in Swiss mouse allografted with mouse S180 cells assessed as reduction in liver to body weight ratio at 2 umol/kg, sc administered every day for 12 days measured on fourteenth day; assay type: organism-based, CCRF S-180; conditions: in vivo, 288 h

In the case of `O=C(O)c1cc2ccccc2cn1`, the Activity [1] is reported as “Non-toxic”, the IC50 [2] is reported as greater than 100 µM and the Activity [3] is reported as 33 g. The IC50 [4] was greater than 100 µM, the Activity [5] was “Non-toxic” and the Activity [6] was “Non-toxic”. It also gave an IC50 [7] greater than 100 µM, an IC50 [8] greater than 100 µM and an IC50 [9] greater than 100 µM. The Activity [10] was 1.104 g, the Activity [11] was “Non-toxic” and the Activity [12] was “Non-toxic”. The IC50 [13] was greater than 100 µM and the Activity [14] was “Non-toxic”.

With `O=C(NCCN(CCNC(=O)c1cc2ccccc2cn1)CCNC(=O)c1cc2ccccc2cn1)c1ccccc1` the Activity [15] was 0.952 g, the IC50 [2] was 33.6 µM and the Activity [16] was “Non-toxic”. The IC50 [4] was 25 µM, the Activity [17] was “Non-toxic” and the IC50 [7] was 38.4 µM. For the same compound, the Activity [18] was “Non-toxic”, the IC50 [8] was 33.5 µM and the IC50 [9] was 87.4 µM. The Activity [19] was “Non-toxic”, the Activity [20] was “Non-toxic” and the IC50 [13] was 75.2 µM. The Activity [21] was 33 g and the Activity [22] was “Non-toxic”.

`COc1cccc2c1C(=O)c1c(O)c3c(c(O)c1C2=O)C[C@@](O)(C(=O)CO)C[C@@H]3O[C@H]1C[C@H](N)[C@H](O)[C@H](C)O1` [DOXORUBICIN] showed an Activity [15] of 0.401 g, an IC50 [2] of 0.27 µM and an Activity [3] of 24 g. The IC50 [4] was 0.16 µM, the IC50 [7] was 0.58 µM and the IC50 [8] was 0.6 µM. For the same compound, the IC50 [9] was 1.36 µM, the Activity [23] was “Toxic” and the Activity [24] was “Toxic”. It also gave an IC50 [13] of 0.13 µM.
